Source: patent US20150343016A1, “CHEMICAL ENTITIES AND THERAPEUTIC USES THEREOF” (The Regents of the University of Colorado, a body corporate, priority 2010, published 2015)

How the values were obtained:
[1] = test system: HN31 Head and Neck Cancer cell line; assay: MTT assay, Bouvardin with ionizing radiation, HN31 (treated on the same day); type: cell-based, human; conditions: HN31 cells
Experimental: “Combination Index” computation. Combination Indices were calculated using CalcuSyn software (Biosoft), which uses the method of Chou and Talalay. This method first computes drug-induced effect using the Hill Equation: where E is the measured effect; C is the drug concentration; Emax is the full range of drug effect, usually at or near 100%; IC50 is the drug concentration producing the median effect of 50%; and n is the curve shape parameter describing the steepness of the concentration-effect relationship. The Chou and Talalay method then linearizes the Hill Equation by logarithmic transformation as: where fu is the fraction of cells left unaffected after drug exposure, fa is the fraction of cells affected by the exposure, C is the drug concentration used, Cm is the concentration to achieve the median effect, and n is the curve shape parameter. Cm and n are equivalent to IC50 and n, respectively, in the Hill Equation. The values of n (obtained from the slope), nlog(Cm) (obtained from the absolute value of the intercept), and, therefore, Cm are obtained by plotting log(fu−1−1) versus log(C). These numbers are then used to compute the Combination Index (CI) according to the formula: CI=(D)1/(Dx)1+(D)2/(Dx)2 (26). (Dx)1 and (Dx)2 are the doses required to achieve a given effect level for each treatment, i.e. a specified value of Fraction Affected or Fa. (D)1 and (D)2 are the doses of each treatment in a given combination which gives the same Fa.
The growth inhibitory effects of Bouvardin with ionizing radiation (IR) were evaluated using a modified tetrazolium salt (MTT) assay. In the MTT assay, 1,000 to 2,000 viable cells were plated in 100 uL of growth medium in 96-well plates (Corning, Ithaca, N.Y.). Following an overnight incubation, drug was added in varying concentrations and the plates were irradiated on the same day (co-treatment) or 24 hr later (pre-treatment) and incubated for 6 to 7 days. The tetrazolium salt was added at a concentration of 0.4 mg/mL to each well following the 6- to 7-day treatment. The plates were incubated with the salt for 4 hours at 37° C. At 4 hours, the medium was aspirated off, leaving the dark blue formazan product at the bottom of the wells. The reduced MTT product was solubilized by adding […] of 0.2 N HCl in 75% isopropanol, 23% MilliQ water to each well. Thorough mixing was done using a Titertek multichannel pipetman. The absorbency of each well was measured using an automated plate reader (Molecular Devices, Sunnyvale, Calif.). All experiments were done in triplicate.
MTT assays were used to determine the effect of Bouvardin (concentrations in uM) in combination with ionizing radiation (in Gy, X-axis). FIG. 14 depicts CI values for Bouvardin and radiation on 3 cell lines. Combination Index data from 3 different Head and Neck Cancer cell lines are shown. Black dashed lines represent a CI value of 1. CI values below 1 indicate synergy. 1586 and UM-SCC19 were pre-treated whereas HN31 was treated on the same day.

[2] = test system: head and neck squamous cell carcinola line (UMSCC2B); assay: MTT assay, bouvardin with radiation, UMSCC2B; type: cell-based, human; conditions: over a wide range of concentrations
Experimental: MTT assays were used to test the effects of bouvardin alone and in combination with radiation on numerous cell lines. Bouvardin and radiation synergize in non-small cell lung cancer cell line (H157) and head and neck squamous cell carcinola line (UMSCC2B) over a wide range of concentrations between bouvardin and radiation. FIG. 8 depicts this synergy in these two cell lines. The efficiency of bouvardin in sensitizing cancer cells to radiation is measured in terms of Combination Index (CI) as determined by Calcusyn software. CI values are either above, below or equal to 1, indicating antagonizing, synergistic or additive effects respectively. “Gy” in FIG. 8 stands for “Gray,” a radiation unit.
The growth inhibitory effects of Bouvardin with ionizing radiation (IR) were evaluated using a modified tetrazolium salt (MTT) assay. In the MTT assay, 1,000 to 2,000 viable cells were plated in 100 uL of growth medium in 96-well plates (Corning, Ithaca, N.Y.). Following an overnight incubation, drug was added in varying concentrations and the plates were irradiated on the same day (co-treatment) or 24 hr later (pre-treatment) and incubated for 6 to 7 days. The tetrazolium salt was added at a concentration of 0.4 mg/mL to each well following the 6- to 7-day treatment. […] The absorbency of each well was measured using an automated plate reader (Molecular Devices, Sunnyvale, Calif.). […]

With COc1ccc(C[C@H]2C(=O)N[C@H](C)C(=O)N(C)[C@@H]3C(=O)N(C)[C@@H](Cc4ccc(O)c(c4)Oc4ccc(cc4)[C@H]3O)C(=O)N[C@@H](C)C(=O)N[C@H](C)C(=O)N2C)cc1 (stereo in doubt) [Bouvardin, bouvardin] the “Combination Index” value ([1]; Bouvardin 0.001 uM + 1 Gy IR) was 4.673, the “Fraction Affected” value ([1]; Bouvardin 0.001 uM + 1 Gy IR) was 0.165 and the “Combination Index” value ([1]; Bouvardin 0.001 uM + 2 Gy IR) was 1.605. The “Fraction Affected” value ([1]; Bouvardin 0.001 uM + 2 Gy IR) was 0.292, the “Combination Index” value ([1]; Bouvardin 0.001 uM + 4 Gy IR) was 0.989 and the “Fraction Affected” value ([1]; Bouvardin 0.001 uM + 4 Gy IR) was 0.478. The “Combination Index” value ([1]; Bouvardin 0.003 uM + 1 Gy IR) was 1.405, the “Fraction Affected” value ([1]; Bouvardin 0.003 uM + 1 Gy IR) was 0.362 and the “Combination Index” value ([1]; Bouvardin 0.003 uM + 2 Gy IR) was 0.877. The “Fraction Affected” value ([1]; Bouvardin 0.003 uM + 2 Gy IR) was 0.463, the “Combination Index” value ([1]; Bouvardin 0.003 uM + 4 Gy IR) was 0.93 and the “Fraction Affected” value ([1]; Bouvardin 0.003 uM + 4 Gy IR) was 0.535. The “Combination Index” value ([1]; Bouvardin 0.006 uM + 1 Gy IR) was 0.462, the “Fraction Affected” value ([1]; Bouvardin 0.006 uM + 1 Gy IR) was 0.574 and the “Combination Index” value ([1]; Bouvardin 0.006 uM + 2 Gy IR) was 0.517. The “Fraction Affected” value ([1]; Bouvardin 0.006 uM + 2 Gy IR) was 0.602, the “Combination Index” value ([1]; Bouvardin 0.006 uM + 4 Gy IR) was 1.005 and the “Fraction Affected” value ([1]; Bouvardin 0.006 uM + 4 Gy IR) was 0.559. For the same compound, the “Combination Index” value ([1]; Bouvardin 0.01 uM + 1 Gy IR) was 0.401, the “Fraction Affected” value ([1]; Bouvardin 0.01 uM + 1 Gy IR) was 0.731 and the “Combination Index” value ([1]; Bouvardin 0.01 uM + 2 Gy IR) was 0.419. For the same compound, the “Fraction Affected” value ([1]; Bouvardin 0.01 uM + 2 Gy IR) was 0.747, the “Combination Index” value ([1]; Bouvardin 0.01 uM + 4 Gy IR) was 0.657 and the “Fraction Affected” value ([1]; Bouvardin 0.01 uM + 4 Gy IR) was 0.73. The “Combination Index” value ([1]; Bouvardin 0.03 uM + 1 Gy IR) was 0.565, the “Fraction Affected” value ([1]; Bouvardin 0.03 uM + 1 Gy IR) was 0.753 and the “Combination Index” value ([1]; Bouvardin 0.03 uM + 2 Gy IR) was 0.471. The “Fraction Affected” value ([1]; Bouvardin 0.03 uM + 2 Gy IR) was 0.782, the “Combination Index” value ([1]; Bouvardin 0.03 uM + 4 Gy IR) was 1.099 and the “Fraction Affected” value ([1]; Bouvardin 0.03 uM + 4 Gy IR) was 0.717. The “Combination Index” value ([1]; Bouvardin 0.06 uM + 1 Gy IR) was 0.663, the “Fraction Affected” value ([1]; Bouvardin 0.06 uM + 1 Gy IR) was 0.778 and the “Combination Index” value ([1]; Bouvardin 0.06 uM + 2 Gy IR) was 0.673. The “Fraction Affected” value ([1]; Bouvardin 0.06 uM + 2 Gy IR) was 0.785, the “Combination Index” value ([1]; Bouvardin 0.06 uM + 4 Gy IR) was 1.086 and the “Fraction Affected” value ([1]; Bouvardin 0.06 uM + 4 Gy IR) was 0.756. The “Combination Index” value ([1]; Bouvardin 0.1 uM + 1 Gy IR) was 0.97, the “Fraction Affected” value ([1]; Bouvardin 0.1 uM + 1 Gy IR) was 0.825 and the “Combination Index” value ([1]; Bouvardin 0.1 uM + 2 Gy IR) was 1.673. For the same compound, the “Fraction Affected” value ([1]; Bouvardin 0.1 uM + 2 Gy IR) was 0.789, the “Combination Index” value ([1]; Bouvardin 0.1 uM + 4 Gy IR) was 1.914 and the “Fraction Affected” value ([1]; Bouvardin 0.1 uM + 4 Gy IR) was 0.784. The “Combination Index” value ([1]; Bouvardin 0.3 uM + 1 Gy IR) was 1.563, the “Fraction Affected” value ([1]; Bouvardin 0.3 uM + 1 Gy IR) was 0.837 and the “Combination Index” value ([1]; Bouvardin 0.3 uM + 2 Gy IR) was 1.911. The “Fraction Affected” value ([1]; Bouvardin 0.3 uM + 2 Gy IR) was 0.826, the “Combination Index” value ([1]; Bouvardin 0.3 uM + 4 Gy IR) was 2.897 and the “Fraction Affected” value ([1]; Bouvardin 0.3 uM + 4 Gy IR) was 0.8. For the same compound, the “Combination Index” value ([1]; Bouvardin 0.6 uM + 1 Gy IR) was 2.067, the “Fraction Affected” value ([1]; Bouvardin 0.6 uM + 1 Gy IR) was 0.85 and the “Combination Index” value ([1]; Bouvardin 0.6 uM + 2 Gy IR) was 2.148. The “Fraction Affected” value ([1]; Bouvardin 0.6 uM + 2 Gy IR) was 0.849, the “Combination Index” value ([1]; Bouvardin 0.6 uM + 4 Gy IR) was 4.862 and the “Fraction Affected” value ([1]; Bouvardin 0.6 uM + 4 Gy IR) was 0.797. The “Combination Index” value ([1]; Bouvardin 1 uM + 1 Gy IR) was 4.673, the “Fraction Affected” value ([1]; Bouvardin 1 uM + 1 Gy IR) was 0.165 and the “Combination Index” value ([1]; Bouvardin 1 uM + 2 Gy IR) was 1.605. The “Fraction Affected” value ([1]; Bouvardin 1 uM + 2 Gy IR) was 0.292, the “Combination Index” value ([1]; Bouvardin 1 uM + 4 Gy IR) was 0.989 and the “Fraction Affected” value ([1]; Bouvardin 1 uM + 4 Gy IR) was 0.478. The “interaction of Bouvardin with radiation” value [2] was “synergize”.
